Data from patent US5712151A, “Antifungal agent” (Merck & Co., Inc., priority 1996, dated 1998).
Converted amounts (≈) assume the structure as drawn.

Experiments:
Type in all cases: cell-based
panel of fungi = test: broth microdilution assay (MIC and MFC) against a panel of fungi; conditions: control compound amphotericin B
Description: (§1) In the microbroth dilution assay, microorganisms were selected by streaking a yeast culture on Sabouraud dextrose agar (SDA) incubating for 24-48 hours at 35°-37° C., thereafter selected 3 to 5 characteristic colonies and transferring to a fresh plate and incubating under similar conditions. From the regrowth, 3 to 5 colonies were selected and suspended in 10 milliliters of YM broth (Difco) and incubated for 4 hours at 35°-37° C. shaking at 225 rpm. The 4 hour broth cultures were adjusted optically to 86% transmission resulting in a concentration of 1-5×10^6 cfu/ml which was further diluted 1:100 in YNBD (yeast nitrogen base with 1% dextrose) to obtain a concentration of 1-5×10^4 cfu/ml for use as inocula. […]
(§2) The plates containing the diluted compounds were then inoculated with 75 μl/well of the appropriate microorganism and incubated for 48 hours at 35°-37° C. with MIC (minimum inhibitory concentration) determinations carried out after 24 hours of incubation (except Cryptococcus strains which are read at 48 hours). […]
(§3) After recording MICs at 24 hours, the microtiter plates were shaken gently to resuspend the cells. […] For Cryptococcus neoformans, SDA plates were inoculated at 48 hours after recording MICs and incubated 48 hours before reading the MFC. […]

[1] = system: Aspergillus fumigatus (MY4839); test: broth microdilution assay (MIC), Aspergillus fumigatus (MY4839); conditions: read-out: Minimum Inhibitory Concentration (MIC)
Description: (§4) The test compound was dissolved at […] in 10% DMSO and diluted 2× into the first well to achieve a concentration of 256 μg/ml at 5% DMSO in the first well. Compounds are subsequently serially diluted 2× and cell suspension is added to each well resulting in an additional 2× dilution of compound. 75 μl of said solution is delivered to each well in column 1 of a 96-well, U-bottomed microtiter plate. The compounds in column 1 were then serially diluted two-fold to yield concentrations from 64 μg/ml to 0.03 μg/ml.
(§5) The plates containing the diluted compounds were then inoculated with 75 μl/well of the appropriate microorganism and incubated for 48 hours at 35°-37° C. with MIC (minimum inhibitory concentration) determinations carried out after 24 hours of incubation (except Cryptococcus strains which are read at 48 hours). Growth and sterility controls for each organism and sterility checks for the compounds also were carried out.

Candida krusei = test: broth microdilution assay (MIC/MFC), Candida krusei; conditions: Pichia kudriavzevii
Description: as §1, §2, §3

Candida albicans (CA2) = test: broth microdilution assay (MIC/MFC), Candida albicans (CA2)
Description: as §1, §2, §3

[2] = system: Aspergillus fumigatus (MY5668); test: broth microdilution assay (MIC), Aspergillus fumigatus (MY5668); conditions: read-out: Minimum Inhibitory Concentration (MIC)
Description: as §4, §5

[3] = system: Candida parapsilosis (MY1010); test: broth microdilution assay (MIC/MFC), Candida parapsilosis (MY1010); conditions: Lodderomyces parapsilosis
Description: as §1, §2, §3

[4] = system: Candida tropicalis (MY1124); test: broth microdilution assay (MIC/MFC), Candida tropicalis (MY1124)
Description: as §1, §2, §3

[5] = system: Cryptococcus neoformans (MY2062); test: broth microdilution assay (MIC/MFC), Cryptococcus neoformans (MY2062); conditions: 48 hours
Description: as §1, §2, §3

[6] = system: Candida guillermondii (MY1019); test: broth microdilution assay (MIC/MFC), Candida guillermondii (MY1019)
Description: as §1, §2, §3

[7] = system: Candida albicans (CLY539); test: broth microdilution assay (MIC/MFC), Candida albicans (CLY539)
Description: as §1, §2, §3

[8] = system: Candida tropicalis (MY1012); test: broth microdilution assay (MIC/MFC), Candida tropicalis (MY1012)
Description: as §1, §2, §3

[9] = system: Candida glabrata (MY1381); test: broth microdilution assay (MIC/MFC), Candida glabrata (MY1381); conditions: Nakaseomyces glabratus
Description: as §1, §2, §3

[10] = system: Saccharomyces cerevisiae (MY2140); test: broth microdilution assay (MIC/MFC), Saccharomyces cerevisiae (MY2140)
Description: as §1, §2, §3

[11] = system: Cryptococcus neoformans (MY2061); test: broth microdilution assay (MIC/MFC), Cryptococcus neoformans (MY2061); conditions: 48 hours, 35°-37° C., read-out: Minimum Inhibitory Concentration (MIC)
Description: as §1, §2, §3

[12] = system: filamentous fungi (Aspergillus flavus, Fusarium oxysporum, Ustilago zeae and the like); test: agar plate inhibition zone test with filamentous fungi; conditions: methanol solutions on agar plates; 28° C. or 37° C., 24 hours
Description: The compound is also useful for inhibiting the growth of filamentous fungi. Such use may be illustrated in the following tests with Aspergillus flavus, Fusarium oxysporum, Ustilago zeae and the like. Inocula for filamentous fungi are prepared by scraping the surface of stock plates maintained on potato dextrose agar with a moistened sterile dacron swab. The spores and mycelia are then suspended in 10 milliliters of sterile potato dextrose broth and adjusted to 70 percent transmission at 660 nm. The samples to be tested for production of antifungal agent are applied directly to the agar plates as methanol solutions. When the sample to be tested is crude broth, it may be centrifuged prior to application. The assay plates are then incubated at either 28° C. or 37° C. for 24 hours. Following incubation, the inhibition zones are measured. Growths are also noted as to appearance.

[13] = system: Candida pseudotropicalis (MY2099); test: broth microdilution assay (MIC/MFC), Candida pseudotropicalis (MY2099); conditions: Kluyveromyces marxianus
Description: as §1, §2, §3

[14] = system: Candida albicans (MY1055); test: broth microdilution assay (MIC/MFC), Candida albicans (MY1055)
Description: as §1, §2, §3

[15] = 24 hours, 35°-37° C., read-out: Minimum Inhibitory Concentration (MIC)
[16] = no growth or ≤4 colonies on SDA, read-out: Minimum Fungicidal Concentration (MFC)

Q: Which “effectiveness against a panel of fungi (MIC and MFC) relative to amphotericin B” value (panel of fungi) does the source give for `C=CC(CCCCC)C1=C(C(=O)C2C3C(C)CC(C(=O)OC)C(O)C3C(O)C2(O)C(=O)/C=C/C)C(=O)NC1=O` (centres unmarked) [Compound I] here?
A: effective at concentrations comparable to an established antifungal agent, amphotericin B

Q: What about the MIC [1] of the same compound?
A: < 0.03 µg/mL

Q: What about the MIC (Candida krusei; [15]) of the same compound?
A: 0.06 µg/mL (≈ 0.11 µM)

Q: What about the MFC (Candida krusei; [16]) of the same compound?
A: 0.5 µg/mL (≈ 0.916 µM)

Q: And the MIC (Candida albicans (CA2); [15])?
A: 0.125 µg/mL (≈ 0.229 µM)

Q: And the MFC (Candida albicans (CA2); [16])?
A: 0.25 µg/mL (≈ 0.458 µM)

Q: And the MIC [2]?
A: 1 µg/mL (≈ 1.83 µM)

Q: And the MIC [3, 15]?
A: < 0.03 µg/mL

Q: What about the MFC [3, 16] of the same compound?
A: < 0.03 µg/mL

Q: And the MIC [4, 15]?
A: 4 µg/mL (≈ 7.33 µM)

Q: What about the MFC [4, 16] of the same compound?
A: 8 µg/mL (≈ 14.7 µM)

Q: What about the MIC ([5]; 35°-37° C., read-out: Minimum Inhibitory Concentration (MIC)) of the same compound?
A: < 0.03 µg/mL

Q: And the MFC [5, 16]?
A: < 0.03 µg/mL

Q: What about the MIC [6, 15] of the same compound?
A: 2 µg/mL (≈ 3.67 µM)

Q: What about the MFC [6, 16] of the same compound?
A: 16 µg/mL (≈ 29.3 µM)

Q: And the MIC [7, 15]?
A: 0.06 µg/mL (≈ 0.11 µM)

Q: And the MFC [7, 16]?
A: 0.125 µg/mL (≈ 0.229 µM)

Q: What about the MIC [8, 15] of the same compound?
A: 1 µg/mL (≈ 1.83 µM)

Q: And the MFC [8, 16]?
A: 2 µg/mL (≈ 3.67 µM)

Q: And the MIC [9, 15]?
A: 16 µg/mL (≈ 29.3 µM)

Q: What about the MFC [9, 16] of the same compound?
A: 32 µg/mL (≈ 58.6 µM)

Q: What about the MIC ([10]; Saccharomyces cerevisiae (MY2140), 24 hours, 35°-37° C., read-out: Minimum Inhibitory Concentration (MIC)) of the same compound?
A: 4 µg/mL (≈ 7.33 µM)

Q: What about the MFC ([10]; Saccharomyces cerevisiae, read-out: Minimum Fungicidal Concentration (MFC)) of the same compound?
A: 0.5 µg/mL (≈ 0.916 µM)

Q: And the MIC [11]?
A: < 0.03 µg/mL

Q: What about the “inhibition of growth of filamentous fungi (inhibition zones)” value [12] of the same compound?
A: effectively inhibit growth of the fungal organisms

Q: And the MIC [13, 15]?
A: 2 µg/mL (≈ 3.67 µM)

Q: What about the MFC [13, 16] of the same compound?
A: 4 µg/mL (≈ 7.33 µM)

Q: And the MIC [14, 15]?
A: < 0.03 µg/mL

Q: And the MFC [14, 16]?
A: 0.06 µg/mL (≈ 0.11 µM)
